The source of these data is ChEMBL document CHEMBL1151096, “7-aminoalkyl-2-amino-1,2,3,4-tetrahydro-2-naphthoic acids as inhibitors of tryptophan uptake” (Bioorg Med Chem Lett, 1992).

SMILES strings stand for the structures.

This test deals with WiDr. Kind of test: Compound was tested for inhibition of 14C-Tryptophan uptake in WiDr human adenocarcinoma cells and the effect was determined at 0-100 uM concentration. It is filed as functional, cell-based.
One may read the Ki as the equilibrium dissociation constant of an inhibitor or competing ligand from its target. High values mean weaker binding, low ones tighter binding. `NC1(C(=O)O)CCc2ccc(N(CCCl)CCCl)cc2C1` (stereo not drawn) had an inhibition constant (Ki) of 800 nM.
For the compound `Nc1ccc2c(c1)CC(N)(C(=O)O)CC2` (stereo not drawn), the affinity corresponds to a Ki of 34000 nM.
As for `NC1(C(=O)O)CCc2ccc(N(CCO)CCO)cc2C1` (stereo not drawn), the figure is 1400 nM.
Take `NC1(C(=O)O)CCc2ccccc2C1` (stereo not drawn): the Ki was determined as 37000 nM.
In turn, `CC(C)Nc1ccc2c(c1)CC(N)(C(=O)O)CC2` (stereo not drawn) displayed an inhibitory constant (Ki) of 600 nM.
As for `CN(C)c1ccc2c(c1)CC(N)(C(=O)O)CC2` (stereo not drawn), the figure is 1400 nM.
As for `CCCN(CCC)c1ccc2c(c1)CC(N)(C(=O)O)CC2` (stereo not drawn), the figure is 7400 nM.
As for `CCCNc1ccc2c(c1)CC(N)(C(=O)O)CC2` (stereo not drawn), the figure is 1700 nM.
